Assay results from PubChem BioAssay (NCI).
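In this assay, cells in 96-well plates receive the compound at five concentrations for 48 hours. Endpoints are linearly interpolated between the surrounding concentrations. TGI: concentration producing complete growth inhibition.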

What was measured:
Test in all cases: NCI tumour cell line growth inhibition, 48 h
786-0 renal = test system: 786-0 renal
A498 renal = test system: A498 renal
A549 NSCLC = test system: A549 NSCLC
ACHN renal = test system: ACHN renal
CAKI-1 renal = test system: CAKI-1 renal
CCRF-CEM leukemia = test system: CCRF-CEM leukemia
COLO 205 colon = test system: COLO 205 colon
DU-145 prostate = test system: DU-145 prostate
EKVX NSCLC = test system: EKVX NSCLC
HCC-2998 colon = test system: HCC-2998 colon
HCT-116 colon = test system: HCT-116 colon
HCT-15 colon = test system: HCT-15 colon
HOP-92 NSCLC = test system: HOP-92 NSCLC
HS 578T breast = test system: HS 578T breast
HT29 colon = test system: HT29 colon
IGROV1 ovarian = test system: IGROV1 ovarian
K-562 leukemia = test system: K-562 leukemia
KM12 colon = test system: KM12 colon
LOX IMVI melanoma = test system: LOX IMVI melanoma
M14 melanoma = test system: M14 melanoma
MCF7 breast = test system: MCF7 breast
MDA-MB-231 breast = test system: MDA-MB-231 breast
MDA-MB-435 = test system: MDA-MB-435
NCI-H226 lung = test system: NCI-H226 lung
NCI-H23 lung = test system: NCI-H23 lung
NCI-H522 lung = test system: NCI-H522 lung
NCI/ADR-RES ovarian = test system: NCI/ADR-RES ovarian
OVCAR-4 ovarian = test system: OVCAR-4 ovarian
OVCAR-5 ovarian = test system: OVCAR-5 ovarian
OVCAR-8 ovarian = test system: OVCAR-8 ovarian
RPMI-8226 leukemia = test system: RPMI-8226 leukemia
RXF 393 renal = test system: RXF 393 renal
SF-268 CNS = test system: SF-268 CNS
SF-295 CNS = test system: SF-295 CNS
SF-539 CNS = test system: SF-539 CNS
SK-MEL-28 melanoma = test system: SK-MEL-28 melanoma
SK-OV-3 ovarian = test system: SK-OV-3 ovarian
SN12C renal = test system: SN12C renal
SNB-19 CNS = test system: SNB-19 CNS
SNB-75 CNS = test system: SNB-75 CNS
SR leukemia = test system: SR leukemia
SW-620 colon = test system: SW-620 colon
T-47D breast = test system: T-47D breast
TK-10 renal = test system: TK-10 renal
U251 CNS = test system: U251 CNS
UACC-257 melanoma = test system: UACC-257 melanoma
UACC-62 melanoma = test system: UACC-62 melanoma
UO-31 renal = test system: UO-31 renal
HL-60(TB) leukemia = test system: HL-60(TB) leukemia
HOP-62 NSCLC = test system: HOP-62 NSCLC
MALME-3M melanoma = test system: MALME-3M melanoma
MOLT-4 leukemia = test system: MOLT-4 leukemia
NCI-H460 lung = test system: NCI-H460 lung
OVCAR-3 ovarian = test system: OVCAR-3 ovarian

Measured: TGI

CN(C)c1nc2oc(-c3ccccc3)c(-c3ccccc3)c2c2nncn12
> 100 µM: 786-0 renal | A498 renal | A549 NSCLC | ACHN renal | CAKI-1 renal | CCRF-CEM leukemia | COLO 205 colon | DU-145 prostate | EKVX NSCLC | HCC-2998 colon | HCT-116 colon | HCT-15 colon | HOP-92 NSCLC | HS 578T breast | HT29 colon | IGROV1 ovarian | K-562 leukemia | KM12 colon | LOX IMVI melanoma | M14 melanoma | MCF7 breast | MDA-MB-231 breast | MDA-MB-435 | NCI-H226 lung | NCI-H23 lung | NCI-H522 lung | NCI/ADR-RES ovarian | OVCAR-4 ovarian | OVCAR-5 ovarian | OVCAR-8 ovarian | RPMI-8226 leukemia | RXF 393 renal | SF-268 CNS | SF-295 CNS | SF-539 CNS | SK-MEL-28 melanoma | SK-OV-3 ovarian | SN12C renal | SNB-19 CNS | SNB-75 CNS | SR leukemia | SW-620 colon | T-47D breast | TK-10 renal | U251 CNS | UACC-257 melanoma | UACC-62 melanoma | UO-31 renal

COP(=O)(Cc1ccc(/C=C/C#N)o1)OC
> 100 µM: 786-0 renal | A498 renal | A549 NSCLC | CCRF-CEM leukemia | COLO 205 colon | DU-145 prostate | EKVX NSCLC | HCT-116 colon | HCT-15 colon | HL-60(TB) leukemia | HOP-62 NSCLC | HOP-92 NSCLC | HS 578T breast | HT29 colon | IGROV1 ovarian | K-562 leukemia | KM12 colon | M14 melanoma | MALME-3M melanoma | MCF7 breast | MDA-MB-231 breast | MDA-MB-435 | MOLT-4 leukemia | NCI-H226 lung | NCI-H23 lung | NCI-H460 lung | NCI-H522 lung | NCI/ADR-RES ovarian | OVCAR-3 ovarian | OVCAR-4 ovarian | OVCAR-8 ovarian | RPMI-8226 leukemia | RXF 393 renal | SF-268 CNS | SF-539 CNS | SK-MEL-28 melanoma | SK-OV-3 ovarian | SNB-19 CNS | SNB-75 CNS | SR leukemia | T-47D breast | TK-10 renal | U251 CNS | UACC-62 melanoma
